Measured values published in ChEMBL document CHEMBL4308841, “Synthesis, in vitro antiproliferative activity, and kinase inhibitory effects of pyrazole-containing diarylureas and diarylamides” (Eur J Med Chem, 2018).

Columns and labels:
[1] = system: CCRF-CEM; test: Growth inhibition of human CCRF-CEM cells assessed as cell growth at 100 uM incubated for 48 hrs by sulforhodamine B assay relative to control; type: functional; conditions: read-out: Activity
[2] = system: BT-549; test: Growth inhibition of human BT549 cells assessed as cell growth at 1 uM incubated for 48 hrs by sulforhodamine B assay relative to control; type: functional; conditions: BT-549, 48 h, read-out: Activity
[3] = system: 786-0; test: Growth inhibition of human 786-0 cells incubated for 48 hrs by sulforhodamine B assay; type: functional, cell-based; conditions: 786-0, 48 h
[4] = system: PC-3; test: Growth inhibition of human PC3 cells incubated for 48 hrs by sulforhodamine B assay; type: functional, cell-based; conditions: PC-3, 48 h
[5] = system: HCC 2998; test: Growth inhibition of human HCC2998 cells assessed as cell growth at 100 uM incubated for 48 hrs by sulforhodamine B assay relative to control; type: functional; conditions: HCC 2998, 48 h, read-out: Activity
[6] = system: SW-620; test: Growth inhibition of human SW620 cells assessed as cell growth at 0.01 uM incubated for 48 hrs by sulforhodamine B assay relative to control; type: functional; conditions: SW-620, 48 h, read-out: Activity
[7] = system: 786-0; test: Growth inhibition of human 786-0 cells assessed as cell growth at 0.01 uM incubated for 48 hrs by sulforhodamine B assay relative to control; type: functional; conditions: 786-0, 48 h, read-out: Activity
[8] = system: NCI-H460; test: Growth inhibition of human NCI-H460 cells incubated for 48 hrs by sulforhodamine B assay; type: functional, cell-based; conditions: NCI-H460, 48 h
[9] = system: BT-549; test: Growth inhibition of human BT549 cells assessed as cell growth at 0.01 uM incubated for 48 hrs by sulforhodamine B assay relative to control; type: functional; conditions: BT-549, 48 h, read-out: Activity
[10] = system: SR; test: Growth inhibition of human SR cells incubated for 48 hrs by sulforhodamine B assay; type: functional, cell-based
[11] = system: HL-60(TB); test: Growth inhibition of human HL-60(TB) cells assessed as cell growth at 0.1 uM incubated for 48 hrs by sulforhodamine B assay relative to control; type: functional; conditions: HL-60, 48 h, read-out: Activity
[12] = system: M14; test: Growth inhibition of human M14 cells incubated for 48 hrs by sulforhodamine B assay; type: functional, cell-based; conditions: M14, 48 h
[13] = system: A498; test: Growth inhibition of human A498 cells incubated for 48 hrs by sulforhodamine B assay; type: functional, cell-based; conditions: A498, 48 h
[14] = system: RXF 393; test: Growth inhibition of human RXF393 cells assessed as cell growth at 1 uM incubated for 48 hrs by sulforhodamine B assay relative to control; type: functional; conditions: RXF 393, 48 h, read-out: Activity
[15] = system: SN12C; test: Growth inhibition of human SN12C cells assessed as cell growth at 100 uM incubated for 48 hrs by sulforhodamine B assay relative to control; type: functional; conditions: read-out: Activity
[16] = system: RPMI-8226; test: Growth inhibition of human RPMI8226 cells assessed as cell growth at 1 uM incubated for 48 hrs by sulforhodamine B assay relative to control; type: functional; conditions: RPMI-8226, 48 h, read-out: Activity
[17] = system: MDA-MB-468; test: Growth inhibition of human MDA-MB-468 cells assessed as cell growth at 0.01 uM incubated for 48 hrs by sulforhodamine B assay relative to control; type: functional; conditions: MDA-MB-468, 48 h, read-out: Activity
[18] = system: OVCAR-3; test: Growth inhibition of human OVCAR3 cells incubated for 48 hrs by sulforhodamine B assay; type: functional, cell-based; conditions: OVCAR-3, 48 h
[19] = system: ACHN; test: Growth inhibition of human ACHN cells assessed as cell growth at 1 uM incubated for 48 hrs by sulforhodamine B assay relative to control; type: functional; conditions: read-out: Activity
[20] = system: MCF7; test: Growth inhibition of human MCF7 cells assessed as cell growth at 1 uM incubated for 48 hrs by sulforhodamine B assay relative to control; type: functional; conditions: MCF7, 48 h, read-out: Activity
[21] = system: IGROV-1; test: Growth inhibition of human IGROV1 cells incubated for 48 hrs by sulforhodamine B assay; type: functional, cell-based; conditions: IGROV-1, 48 h
[22] = system: SF-539; test: Growth inhibition of human SF539 cells assessed as cell growth at 1 uM incubated for 48 hrs by sulforhodamine B assay relative to control; type: functional; conditions: SF-539, 48 h, read-out: Activity
[23] = system: NCI/ADR-RES; test: Growth inhibition of human NCI/ADR-RES cells incubated for 48 hrs by sulforhodamine B assay; type: functional, cell-based
[24] = system: RXF 393; test: Growth inhibition of human RXF393 cells assessed as cell growth at 0.1 uM incubated for 48 hrs by sulforhodamine B assay relative to control; type: functional; conditions: RXF 393, 48 h, read-out: Activity
[25] = system: A498; test: Growth inhibition of human A498 cells assessed as cell growth at 0.1 uM incubated for 48 hrs by sulforhodamine B assay relative to control; type: functional; conditions: A498, 48 h, read-out: Activity
[26] = system: MOLT-4; test: Growth inhibition of human MOLT4 cells assessed as cell growth at 1 uM incubated for 48 hrs by sulforhodamine B assay relative to control; type: functional; conditions: MOLT-4, 48 h, read-out: Activity
[27] = system: UACC-257; test: Growth inhibition of human UACC257 cells assessed as cell growth at 0.01 uM incubated for 48 hrs by sulforhodamine B assay relative to control; type: functional; conditions: UACC-257, 48 h, read-out: Activity
[28] = system: HCT-116; test: Growth inhibition of human HCT116 cells assessed as cell growth at 1 uM incubated for 48 hrs by sulforhodamine B assay relative to control; type: functional; conditions: HCT-116, 48 h, read-out: Activity
[29] = read-out: LC50 (the source's name)
[30] = read-out: pLC50 (the source's name) (converted)

COc1cc(Cl)cc(-c2nn(-c3cccc(NC(=O)Nc4ccc(Cl)c(Cl)c4)c3)cc2-c2ccncc2)c1
growth at 100 µM [1]: -27%
growth at 1 µM [2]: 92%
GI50 ([3]; read-out: GI50): 2.31 µM
CC50 [3, 29]: > 100 µM
TGI ([3]; read-out: TGI): 75.4 µM
GI50 ([3]; read-out: pGI50 (converted)): 2.29 µM
CC50 [3, 30]: > 100 µM
TGI ([3]; read-out: pTGI (converted)): 7.76 µM
IC50 [4]: 1.13 µM
GI50 ([4]; read-out: GI50): 1.13 µM
CC50 [4, 29]: > 100 µM
TGI ([4]; read-out: TGI): 52.5 µM
GI50 ([4]; read-out: pGI50 (converted)): 1.12 µM
CC50 [4, 30]: > 100 µM
TGI ([4]; read-out: pTGI (converted)): 5.25 µM
growth at 100 µM [5]: -7%
growth at 0.01 µM [6]: 100%
growth at 0.01 µM [7]: 100%
GI50 ([8]; read-out: GI50): 2.27 µM
CC50 [8, 29]: > 100 µM
TGI ([8]; read-out: TGI): 13.9 µM
GI50 ([8]; read-out: pGI50 (converted)): 2.29 µM
CC50 [8, 30]: > 100 µM
TGI ([8]; read-out: pTGI (converted)): 13.8 µM
growth at 0.01 µM [9]: 96%
GI50 ([10]; read-out: GI50): 1.54 µM
CC50 [10, 29]: > 100 µM
TGI ([10]; read-out: TGI): 53 µM
GI50 ([10]; read-out: pGI50 (converted)): 1.55 µM
CC50 [10, 30]: > 100 µM
TGI ([10]; read-out: pTGI (converted)): 5.75 µM
growth at 0.1 µM [11]: 93%
GI50 ([12]; read-out: GI50): 2.52 µM
CC50 [12, 29]: > 100 µM
TGI ([12]; read-out: TGI): 10 µM
GI50 ([12]; read-out: pGI50 (converted)): 3.16 µM
CC50 [12, 30]: > 100 µM
TGI ([12]; read-out: pTGI (converted)): 11 µM
GI50 ([13]; read-out: GI50): 2.52 µM
CC50 [13, 29]: > 100 µM
TGI ([13]; read-out: TGI): 90.9 µM
GI50 ([13]; read-out: pGI50 (converted)): 2.51 µM
CC50 [13, 30]: > 100 µM
TGI ([13]; read-out: pTGI (converted)): 91.2 µM
growth at 1 µM [14]: 75%
growth at 100 µM [15]: 5%
growth at 1 µM [16]: 39%
growth at 0.01 µM [17]: 95%
IC50 [18]: 1.56 µM
GI50 ([18]; read-out: GI50): 1.56 µM
CC50 [18, 29]: > 100 µM
TGI ([18]; read-out: TGI): 29.4 µM
GI50 ([18]; read-out: pGI50 (converted)): 1.55 µM
CC50 [18, 30]: > 100 µM
TGI ([18]; read-out: pTGI (converted)): 29.5 µM
growth at 1 µM [19]: 91%
growth at 1 µM [20]: 83%
GI50 ([21]; read-out: GI50): 4.36 µM
CC50 [21, 29]: > 100 µM
TGI ([21]; read-out: TGI): > 100 µM
GI50 ([21]; read-out: pGI50 (converted)): 4.37 µM
CC50 [21, 30]: > 100 µM
TGI ([21]; read-out: pTGI (converted)): > 100 µM
growth at 1 µM [22]: 82%
GI50 ([23]; read-out: GI50): 2.34 µM
CC50 [23, 29]: > 100 µM
TGI ([23]; read-out: TGI): 24.9 µM
GI50 ([23]; read-out: pGI50 (converted)): 2.34 µM
CC50 [23, 30]: > 100 µM
TGI ([23]; read-out: pTGI (converted)): 25.1 µM
growth at 0.1 µM [24]: 101%
growth at 0.1 µM [25]: 58%
growth at 1 µM [26]: 70%
growth at 0.01 µM [27]: 96%
growth at 1 µM [28]: 71%
